Patent US20050053631A1, “Method of decreasing sebum production” (Unilever Home & Personal Care USA, Division of Conopco, Inc., priority 2003, published 2005)

System: sebocytes
Test: In Vitro Sebocyte Lipogenesis Assay (14-C acetate incorporation into lipids of cultured sebocytes)
Assay type: cell-based
Conditions: cultured human sebocytes; for % decrease in lipid syn.: 24 h, relative to vehicle control
Description: In Vitro Sebocyte Lipogenesis Assay
Human sebaceous glands were isolated from the nose of a person and cultured using submerged tissue culture techniques (Bajor et al, J. Invest. Dermatol., 102:1994, p. 564). These sebocytes accumulate intracellular lipid droplets characteristic of mature human sebum.
Harvested and passaged sebocytes were added to each well of a 96 well tissue culture plate and incubated at 37° C. in-the presence of 7.5% CO2 for 10 days. The growth medium was changed three times per week. On the day of experimentation, the growth medium was removed and the sebocytes washed three times with phosphate buffered saline (PBS). Fresh phenol-free sebocyte growth media in 0.2 ml amount containing various concentrations of active agent speculated to inhibit lipogenesis was added to each well. Triplicate wells were utilized for each sample. […] The cultures were incubated at 37° C./7.5% CO2 for 24 hours. Radioactive label was prepared by adding 100 μl (micro-liters) of 14-C labelled acetic acid (Amersham, sodium salt, specific activity of 56 mCi/mmol) to 10 ml of 50 mM sodium acetate buffer. Then 50 μl was added to each well containing the sebocytes and active agents. The cultures were returned to the incubator for 4 hours. Thereafter the treatments and label were removed and the sebocytes rinsed three times with fresh PBS. Samples containing the 14-C label were extracted and the label counted using a Beckman scintillation counter. Triplicates were performed for each sample.
For each 96 well tissue culture plate, 20 samples could be analyzed. Of these, 1 sample was reserved for media, 1 sample for DMSO or ethanol, and 1 sample for phenol red leaving 17 remaining samples.

Molecule: C=C/C(C)=C/[C@@]1(C)SC(=O)C(C)=C1O [Thiolactomycin]
- activity in reducing lipid synthesis in sebocytes (in words): not to inhibit

Molecule: C=C1CCOC1=O [α-methylene-γ-butyrolactone]
- % decrease in lipid syn. (10 uM): 1.3%
- % decrease in lipid syn. (20 uM): 13.2%
- % decrease in lipid syn. (100 uM): 53.3%
- % decrease in lipid syn. (500 uM): 100%
- activity in reducing lipid synthesis in sebocytes (in words): significant activity

Molecule: Oc1cc(Cl)ccc1Oc1ccc(Cl)cc1Cl [Triclosan]
- % decrease in lipid syn. (20 uM): 48.8%
- % decrease in lipid syn. (40 uM): 90%
- % decrease in lipid syn. (100 uM): 97.2%
- activity in reducing lipid synthesis in sebocytes (in words): significant activity

Molecule: C=C1CCC(=O)O1 [γ-methylene γ-butyrolactone]
- activity in reducing lipid synthesis in sebocytes (in words): ineffective

Molecule: O=C(OC1Cc2c(O)cc(O)cc2OC1c1cc(O)c(O)c(O)c1)c1cc(O)c(O)c(O)c1 (single isomer, unassigned; (-)) [EGCG, (−)-epigallocatechin gallate]
- % decrease in lipid syn. (8 uM): 8.9%
- % decrease in lipid syn. (40 uM): 13.4%
- % decrease in lipid syn. (200 uM): 29.5%
- % decrease in lipid syn. (1000 uM): 90%
- activity in reducing lipid synthesis in sebocytes (in words): significant activity

Molecule: [2R,3S]-2,3-epoxy4-oxo-7,10-trans, trans-dodecanoic acid amide [Cerulenin]
- % decrease in lipid syn. (1.6 uM): 13.6%
- % decrease in lipid syn. (5 uM): 52.0%
- % decrease in lipid syn. (10 uM): 96.5%
- % decrease in lipid syn. (40 uM): 99.0%
- % decrease in lipid syn. (concentration not printed (between 40 uM and 10 uM in the list)): 96.5%
- activity in reducing lipid synthesis in sebocytes (in words): significant activity
